Laboratory results from PMC11150212, “Synthesis and evaluation of [^18F]FBNAF, a STAT3-targeting probe, for PET imaging of tumor microenvironment” (EJNMMI Radiopharmacy and Chemistry, 2024).

Key:
A549 tumor-bearing mice = tested on: A549 tumor-bearing mice; parameters: method as in Zhang et al. [2012]; details: repeated intravenous administration, ref Zhang et al. [2012]; cited from earlier work
SH2 domain of STAT3 = details: ref Zhang et al. [2012]; cited from earlier work
[1] = tested on: STAT3 phosphorylation (Tyr705) in A549 cells; assay: Phosphorylation inhibitory assay (western blotting); assay type: cell-based, Human; details: 24 h
Method: Several concentrations of FBNAF (final conc. 0, 0.2, 0.5 1.0, and 2.0 μM in medium containing 1% DMSO) were added to A549 cells, followed by incubation at 37℃ for 24 h. After harvesting, cells were lysed with Passive Lysis Buffer (Promega, Madison, WI, USA) containing 1% protease inhibitor and 1% phosphatase inhibitor. Cell protein was quantified using a Pierce BCA Protein Assay Kit (Thermo Scientific, Waltham, MA, USA). The samples (15 μg/lane) were loaded and separated on an sodium dodecyl sulfate (SDS) polyacrylamide gel. Western blotting was performed using primary antibodies against STAT3 (1:2000 dilution, #4904, Cell Signaling Technology, Danvers, MA, USA), pSTAT3(Tyr705) (1:2000 dilution, #9145, Cell Signaling Technology), and β-actin (1:5000 dilution, NB600-503, Novus Biologicals, Centennial, CO, USA), as well as anti-rabbit IgG HRP-conjugated antibody (1:3000 dilution, HAF008, R&D Systems, Minneapolis, MN, USA) as a secondary antibody. The western blot bands were detected using Chemi-Lumi One L (Nacalai Tesque) and analyzed using an Amersham imager 600 (Cytiva, Tokyo, Japan). To detect pSTAT3, Chemi-Lumi One Ultra (Nacalai Tesque) was used.

## CN(CC(=O)N(Cc1ccc(C2CCCCC2)cc1)c1ccc(C(=O)O)c(O)c1)S(=O)(=O)c1c(F)c(F)c(F)c(F)c1F [BP-1–102]
A549 tumor-bearing mice
  effect on tumor growth: inhibited tumor growth
SH2 domain of STAT3
  Kd: 504 nM

## CC1CC2=C(O1)c1ccc(OCc3ccc(F)cc3)cc1C(=O)C2=O (centres unmarked) [FBNAF, 7-(4-Fluoro-benzyloxy)-2-methyl-2,3-dihydro-naphtho[1,2-b]furan-4,5-dione]
[1]; 0–2 μM
  change in total STAT3 expression: no significant change
[1]; 0.5 μM
  inhibition of pSTAT3 expression: 50%
[1]; 1.0 μM
  inhibition of pSTAT3 expression: 60%
